# Measured values published in EP0256532B1, “Use of dihydrobenzopyrane derivatives” (F. HOFFMANN-LA ROCHE AG, priority 1986, dated 1988).
# Marks after values point to notes of the source that are not given here.
# Experiments:
# [1] = test system: Antibiotika-induzierte Kolitis in Hamstern; assay: Antibiotic (clindamycin)-induced colitis in hamsters, in vivo; design: species or system syrischen Hamstern (LUG)
# Protocol: Man verabreicht männlichen, 80-120 g schweren syrischen Hamstern (LUG) eine einmalige Dosis von 175 mg/kg Clindamycin-phosphat oder Clindamycin-hydrochlorid intraperitoneal, um eine Kolitis zu induzieren. Ungefähr 7 Stunden nach dieser Injektion verabreicht man den Tieren die zu testende Verbindung oral oder intraperitoneal. Während einer Periode von 4 weiteren Tagen wird diese Therapie zweimal täglich wiederholt. Für die orale Verabreichung wurde die zu testende Verbindung in Wasser suspendiert oder in Dimethylsulfoxid gelöst und mittels einer Magensonde verabreicht. Der Effekt der Therapie wurde durch das sogenannte "Hazard"-Verhältnis bestimmt. Es handelt sich dabei um das Verhältnis der Sterblichkeitsrate von Tieren, welche mit der zu testenden Verbindung behandelt worden sind, im Vergleich zu den Tieren, welche nur mit Vehikel behandelt worden sind. Die Sterblichkeitsrate wurde zweimal täglich bestimmt und wurde durch Vergleich der Ueberlebenskurven für jede Gruppe ausgewertet. Für jede Gruppe von Versuchstieren wurde die Kaplan-Meier-Schätzung der Ueberlebenskurve berechnet, und es wurde der Mantel-Cox-Test verwendet, um die Ueberlebenskurve der mit Inhibitor behandelten Gruppe mit derjenigen der nur mit Vehikel behandelten Gruppe zu vergleichen. Ein Hazard-Verhältnis von 1,0 bedeutet, dass der Effekt der Therapie nicht besser ist, als derjenige der mit dem Vehikel allein erzielt wird, währenddem ein Hazard-Verhältnis (>1.0) bedeutet, das die Therapie die Ueberlebensrate im Vergleich zu derjenigen Gruppe, welche nur mit dem Vehikel behandelt worden ist, verbessert.
# LTC₄ = assay: Rat colon mucosa in vitro (Ussing short-circuit technique), LTC₄-induced electrolyte secretion; type: cell-based, Ratte; settings: 6 animals
# Excerpt: (§1) Das Bioassay-System des Versuches mit der Mucosa des Rattenkolons basiert auf der Messung der durch Absorption oder Sekretion bewirkten Aenderungen im Salztransport durch das tierische Gewebe, wobei man die durch Ussing et al. beschriebene Standard-Kurzschluss-Technik verwendet, Acta Physiol. Scand. 23, 110-127 (1951). Diarrhö ist das häufigste Symptom bei gastrointestinalen Entzündungen und tritt bei allen Typen der Enteritis auf. Pantera, et al., Ital. J. Gastroenterol. 13: 24-27 (1981); Sales, et al., Arch. Int. Med. 143: 294-299 (1983); Hodgson, Br. J. Clin. Pharmac. 14: 159-270 (1982). Diarrhö wird durch eine Abnahme in der Salzabsorption oder eine Zunahme in der Salzsekretion im Darm bewirkt und kann durch die oben erwähnte Methode von Ussing et al. in vitro quantifiziert werden. Man entfernt von 200-250 g schweren Tieren ein 1 cm langes Segment des Kolons, behandelt dieses in vitro mit Leukotrienen oder Bradykinin, welche die Salzsekretion fördern, und misst die erhaltene Aenderung im Netto-Salztransport, welche in Gegenwart und in Abwesenheit von 6-Acetyl-7-[5-(4-acetyl-3-hydroxy-2-propylphenoxy)pentyloxy] -3,4-dihydro-2H-1-benzopyran-2-carbonsäure als Hemmer erhalten wird. Gewebeproben werden paarweise in Ussing-Kammern befestigt und mit automatischen Spannungsklemmen (von der University of Iowa Bioengineering Department) kurzgeschlossen. […]
# [2] = test system: Essigsäure-induzierte Colitis in Ratten; assay: Acetic acid-induced colitis in rats, in vivo (myeloperoxidase in colon mucosa); design: species or system Ratten (Sprague-Dawley)
# Excerpt: Der Essigsäure-induzierte-Colitis-Bioassay an Ratten ist durch J.E. Krawisz et al. in Amer. J. Proc. Gastro. Col. Rec. Surg. 31, 11-18 (1980) und P. Sharon und W.F. Stenson in Gastroenterology 88, 55-63 (1985) und 86, 453-460 (1984) beschrieben worden. Die Essigsäure-induzierte Colitis ist durch eine Wanderung von Entzündungszellen in das Kolon charakterisiert. Die Anzahl derartiger Zellen in der Mucosa kann bestimmt werden, indem man die Aktivität der Myeloperoxidase, einem Marker-Enzym für diese Zellen, misst. Eine positive gewünschte Wirkung zeigt sich in einer Reduktion des hohen Myeloperoxidase-Spiegels, der durch die Essigsäure verursacht wird. Männliche, 150-300 g schwere Ratten (Sprague-Dawley) werden während 2 Tagen, zweimal täglich entweder mit dem Vehikel (Wasser oder Dimethylsulfoxid) oder der im Wasser suspendierten oder in Dimethylsulfoxid gelösten Testsubstanz oral vorbehandelt. Am 3. Tag behandelt man die Tiere noch einmal wie an den beiden Vortagen, anästhetisiert mit Metofan, injiziert 2 ml 2,5-proz. Essigsäure mittels einer Spritze in das Lumen des Kolons und unmittelbar danach 3 ml Luft und eine Spüllösung, bestehend aus 3 ml Phosphat-gepufferter Kochsalzlösung, […] genügend lange im Lumen, um eine Entzündung zu induzieren, ohne jedoch schwere Nekrose oder irreversible Schäden zu bewirken). […]
# LTE₄ = assay: Rat colon mucosa in vitro (Ussing short-circuit technique), LTE₄-induced electrolyte secretion; type: cell-based, Ratte; settings: 6 animals
# Excerpt: as §1
# [3] = test system: Carrageenin-induzierte Colitis in Meerschweinchen; assay: Carrageenin-induced colitis in guinea pigs, in vivo (water transport in distal colon); design: species or system Meerschweinchen (Hartley); settings: 10 bzw. 30 mg/kg oral; Figur 5
# Excerpt: Der Carrageenin-induzierte-Colitis-Bioassay an Meerschweinchen ist durch A. B. Onderdonk in Inflammatory Bowel Diseases, Martinus Nijhoff Publ., Boston, Massachusetts, Seiten 126-134 (1982) und in Human Intestinal Microflora in Health and Disease (D. J. Hentger. ed), Academic Press, New York, 1983, Seiten 447-479 beschrieben worden. Das aus Rotalgen herstammende Polysaccharid Jotacarrageenin bewirkt in Meerschweinchen eine Colitis, welche der ulcerativen Colitis im Menschen ähnlich ist. Männliche und weibliche, 400-650 g Meerschweinchen (Hartley) erhielten via Trinkwasser täglich eine 3-proz. Lösung von abgebautem Carrageenin. Nach etwa 7 Tagen begannen die Versuchstiere eine Diarrhö zu entwickeln, nahmen an Gewicht nicht mehr zu und wurden lethargisch. Nachdem die Versuchstiere während 14 Tagen auf diese Weise Carrageenin verabreicht erhielten, wurde die Diarrhö quantifiziert, und zwar durch Messung des Wassertransportes in den distalen Teil des Kolons durch einfache Pass-Perfusion unter Verwendung von 14C-Polyäthylenglykol 4000 (PEG 4000) als Marker. Kontrolltiere erhielten eine wässrige Trinklösung, enthaltend 3-proz. mannitol anstelle des Carrageenins. Gleichzeitig wurden zufällig ausgewählte Versuchstiere aus diesen beiden Gruppen zweimal täglich mit der Testsubstanz oral behandelt.
# Bradykinin = assay: Rat colon mucosa in vitro (Ussing short-circuit technique), bradykinin-induced secretion; type: cell-based, Ratte; settings: Figur 1; result in words
# Excerpt: as §1
# LTB₄ = assay: Rat colon mucosa in vitro (Ussing short-circuit technique), LTB₄-induced electrolyte secretion; type: cell-based, Ratte; settings: 6 animals
# Excerpt: as §1
# LTD₄ = assay: Rat colon mucosa in vitro (Ussing short-circuit technique), LTD₄-induced electrolyte secretion; type: cell-based, Ratte; settings: 6 animals
# Excerpt: as §1
# [4] = Inhibitor Konzentration 1 Mikromol
# [5] = Inhibitor Konzentration 10 Mikromol
# [6] = 10 mg/kg intraperitoneal in 0,075 ml PEG-400, twice daily, >1.0 = survival better than vehicle
# [7] = 10 mg/kg oral in 0,15 ml Wasser, twice daily
compound,measurement,setting,value
"6-Acetyl-7-[5-(4-acetyl-3-hydroxy-2-propylphenoxy)pentyloxy]-3,4-dihydro-2H-1-benzopyran-2-carbonsäure-hexylesters",Hazardverhältnis,[1]; 20 µMol/kg oral (Tabelle 3),"1,64"
"CCCc1c(OCCCCCOc2cc3c(cc2C(C)=O)CCC(C(=O)O)O3)ccc(C(C)=O)c1O (racemic) [6-Acetyl-7-[5-(4-acetyl-3-hydroxy-2-propylphenoxy)pentyloxy] -3,4-dihydro-2H-1-benzopyran-2-carbonsäure]",% Inhibition gegen Leukotriene LTC₄,LTC₄; [4],"9,5±19,2%"
same,% Inhibition gegen Leukotriene LTC₄,LTC₄; [5],"57,1+19,7%"
same,Hazardverhältnis,[1]; [6],"2,87"
same,Hazardverhältnis,[1]; [7],"3,80"
same,Hazardverhältnis,"[1]; 60 mg/kg intraperitoneal in 0,075 ml PEG-400, twice daily","4,77"
same,Hazardverhältnis,"[1]; 60 mg/kg oral in 0,15 ml Wasser, twice daily","12,0"
same,Hazardverhältnis,"[1]; 100 mg/kg oral in 0,15 ml Wasser, twice daily","64,2"
same,Hazardverhältnis,[1]; 20 µMol/kg oral (Tabelle 3),"1,45"
same,"Histopathological effects on cecum and colon (oedema, bleeding, necrosis, erosions, inflammatory cell infiltration)","[1]; 60 oder 100 mg/kg, in most cases",reduziert oder gänzlich zum Verschwinden gebracht
same,Activity against antibiotic-induced colitis,[1]; oral doses 10 bis 100 mg/kg,aktiv
same,Diarrhö,[1]; result in words,reduzierte
same,Histopathologie des Cecums und des Kolons,[1]; result in words,verbesserte in einem beträchtlichen Ausmass
same,Ueberlebensrate der mit Clidamycin behandelten Tiere,[1]; result in words,erhöht
same,Activity (reduction of myeloperoxidase level caused by acetic acid),"[2]; oral 30 und 90 mg/kg, Figur 3",aktiv
same,% Inhibition gegen Leukotriene LTE₄,LTE₄; Inhibitor Konzentration 1 Mikromol (µM),"29,8±15,0%"
same,% Inhibition gegen Leukotriene LTE₄,LTE₄; Inhibitor Konzentration 10 Mikromol (µM),"44,2± 9,8%"
same,Wassertransport-Raten,[3],"praktisch gleich waren, wie diejenigen der Kontroll-Versuchstiere"
same,sekretorische Aktivität von Bradykinin,Bradykinin,reduzieren
same,% Inhibition gegen Leukotriene LTB₄,LTB₄; [4],"44,4±13,1%"
same,% Inhibition gegen Leukotriene LTB₄,LTB₄; [5],"69,6±11,9%"
same,% Inhibition gegen Leukotriene LTD₄,LTD₄; [4],"30,8±15,4%"
same,% Inhibition gegen Leukotriene LTD₄,LTD₄; [5],"62,4±10,0%"
"CCCc1c(OCCCCCOc2cc3c(cc2C(C)=O)CCC(C(=O)OC)O3)ccc(C(C)=O)c1O (racemic) [6-Acetyl-7-[5-(4-acetyl-3-hydroxy-2-propylphenoxy)pentyloxy]-3,4-dihydro-2H-1-benzopyran-2-carbonsäure-methylester]",Hazardverhältnis,[1]; 20 µMol/kg oral (Tabelle 3),"3,42"
"O=C1CCN(c2ccccc2)N1 [Phenidon, reference compound]",Activity (reduction of myeloperoxidase level caused by acetic acid),"[2]; oral 100 und 200 mg/kg, Figur 2",aktiv
"CCCc1c(OCC(O)COc2ccc3c(=O)cc(C(=O)O)oc3c2CCC)ccc(C(C)=O)c1O (stereo not drawn) [Vergleichssubstanz 1, 7-[-3-(4-Acetyl-3-hydroxy-2-propyl-phenoxy)-2-hydroxypropoxy] -4-oxo-8-propyl-4H-1-benzopyran-2-carbonsäure, reference compound]",Hazardverhältnis,[1]; [6],"2,02^c"
same,Hazardverhältnis,[1]; [7],"1,42"
same,Activity against antibiotic-induced colitis,[1]; oral 10 mg/kg,inaktive
"CCCc1c(OCCCOc2ccc3c(=O)cc(CCCC(=O)O)oc3c2CCC)ccc(C(C)=O)c1O [Vergleichssubstanz 2, 7-[3-(4-Acetyl-3-hydroxy-2-propylphenoxy)propoxy]-4-oxo-8-propyl-4H-1-benzopryran-2-propancarbonsäure, reference compound]",Hazardverhältnis,"[1]; 13 mg/kg oral in 0,15 ml Wasser, twice daily","1,68"
same,Activity against antibiotic-induced colitis,[1]; oral 10 mg/kg,inaktive
